# Assay results reported in patent US7803930B2, “Antisense modulation of apolipoprotein B-expression” (Isis Pharmaceuticals, Inc., priority 2002, dated 2010).
# In the oligonucleotide strings, read from the 5' end, every base follows the letter of its sugar. An asterisk marks phosphorothioate; unmarked linkages are phosphodiester. Other units and linkages are bracketed, terminal groups are in braces. A string of capitals states the bases alone. e = 2'-O-(2-methoxyethyl) (MOE); [5mC] = 5-methylcytosine; d = 2'-deoxy (DNA)
# What was measured:
# Format in all cases: in vivo, mouse
# [1] = High fat fed mice (Example 51): intact oligonucleotide in liver tissue by capillary gel electrophoresis; settings: 50 mg/kg i.p. twice weekly
# Protocol: (§1) In a further embodiment of the invention, the inhibition of apolipoprotein B mRNA in mice was compared to liver oligonucleotide concentration, total cholesterol, LDL-cholesterol and HDL-cholesterol. Male C57Bl/6 mice receiving a high fat diet (60% fat) were evaluated over the course of 6 weeks for the effects of treatment with twice weekly intraperitoneal injections of 50 mg/kg ISIS 147764 (SEQ ID NO: 109) or 50 mg/kg of the control oligonucleotide ISIS 141923 (SEQ ID NO: 858). Control animals received saline treatment. Animals were sacrificed after 2 days, 1, 2, 4 and 6 weeks of treatment. Each treatment group at each time point consisted of 8 mice.
# (§2) Target expression in liver was measured by real-time PCR as described by other examples herein and is expressed as percent inhibition relative to saline treated mice. Total, LDL- and HDL-cholesterol levels were measured by routine clinical analysis using an Olympus Clinical Analyzer (Olympus America Inc., Melville, N.Y.) and are presented in mg/dL. Results from saline-treated animals are shown for comparison. Intact oligonucleotide in liver tissue was measured by capillary gel electrophoresis and is presented as micrograms of oligonucleotide per gram of tissue.
# (§3) The oligonucleotide treatments described in this example were duplicated to investigate the extent to which effects of ISIS 147764 persist following cessation of treatment. Mice were treated as described, and sacrificed 1, 2, 4, 6 and 8 weeks following the cessation of oligonucleotide treatment.
# [2] = LDLr(-/-) mice dose response (Example 44): liver enzyme, cholesterol and triglyceride levels; settings: six weeks
# Protocol: LDLr(−/−) mice, purchased from Taconic (Germantown, N.Y.) were used to evaluate antisense oligonucleotides for their potential to lower apolipoprotein B mRNA or protein levels, as well as phenotypic endpoints associated with apolipoprotein B. LDLr(−/−) mice were separated into groups of males and females. LDLr(−/−) mice were dosed intraperitoneally twice a week for six weeks with either 10, 25, or 50 mg/kg of ISIS 147764 (SEQ ID NO: 109) or ISIS 270906 (SEQ ID NO: 856) which is a 4 base mismatch of ISIS 147764, or with saline, or 20 mg/kg of Atorvastatin. At study termination animals were sacrificed and evaluated for several phenotypic markers.
# apolipoprotein B mRNA [3] = assay: High fat fed mice, time-dependent effects and after cessation of dosing (Example 51): apolipoprotein B mRNA in liver; settings: for % Inhibition apolipoprotein B mRNA: liver
# Protocol: as §1, §2, §3
# apolipoprotein B mRNA [4] = assay: Lean mice, 6 weeks (Example 66): apolipoprotein B mRNA
# Protocol: The accumulation of lipids in liver tissue was also evaluated in lean mice. Male […] mice (Charles River Laboratories (Wilmington, Mass.) at 6 to 7 weeks of age were maintained on a standard rodent diet and were treated twice weekly with intraperitoneal injections of 25 or 50 mg/kg 147764 (SEQ ID NO: 109) or 147483 (SEQ ID NO: 79) for 6 weeks. Saline treated animals served as controls. Each treatment group was comprised of 4 animals. Animals were sacrificed after the 6 week treatment period, at which point liver tissue and serum were collected.
# Apolipoprotein B mRNA levels were measured by real-time PCR as described by other examples herein. The data, shown in Table 51, represent the average of 4 animals and are presented as inhibition relative to saline treated controls.
# [5] = Transgenic mice dosing study (Example 52): serum total, LDL- and HDL-cholesterol
# Protocol: A long-term study of inhibition of human apolipoprotein B by ISIS 301012 in C57BL/6NTac-TgN(APOB100) mice (Taconic, Germantown, N.Y.) was conducted for a 3 month period. Mice were dosed intraperitoneally twice a week with 10 or 25 mg/kg ISIS 301012 (SEQ ID No: 247) for 12 weeks. Saline-injected animals served as controls. Each treatment group comprised 4 animals.
# Results are presented as mg/dL in serum and represent the average of 4 animals. Results from the saline control animals are also shown.
# [6] = female LDLr(-/-) mice, 10 mg/kg i.p. twice a week
# [7] = female LDLr(-/-) mice, 25 mg/kg i.p. twice a week
# [8] = female LDLr(-/-) mice, 50 mg/kg i.p. twice a week
# [9] = male LDLr(-/-) mice, 10 mg/kg i.p. twice a week
# [10] = male LDLr(-/-) mice, 25 mg/kg i.p. twice a week
# [11] = male LDLr(-/-) mice, 50 mg/kg i.p. twice a week
# [12] = serum, 10 mg/kg i.p. twice a week, 2 weeks
# [13] = serum, 10 mg/kg i.p. twice a week, 4 weeks
# [14] = serum, 10 mg/kg i.p. twice a week, 6 weeks
# [15] = serum, 10 mg/kg i.p. twice a week, 8 weeks
# [16] = serum, 10 mg/kg i.p. twice a week, Start
# [17] = serum, 25 mg/kg i.p. twice a week, 2 weeks
# [18] = serum, 25 mg/kg i.p. twice a week, 4 weeks
# [19] = serum, 25 mg/kg i.p. twice a week, 6 weeks
# [20] = serum, 25 mg/kg i.p. twice a week, 8 weeks
# [21] = serum, 25 mg/kg i.p. twice a week, Start
substance,measurement,setting,value
147764 (eG*eT*e[5mC]*e[5mC]*e[5mC]*dT*dG*dA*dA*dG*dA*dT*dG*dT*d[5mC]*eA*eA*eT*eG*e[5mC]) [compound 147764],Intact oligonucleotide,"[1]; high fat fed male C57Bl/6 mice, treatment period 1 week",121 µg/g
same,Intact oligonucleotide,"[1]; high fat fed male C57Bl/6 mice, treatment period 2 weeks",194 µg/g
same,Intact oligonucleotide,"[1]; high fat fed male C57Bl/6 mice, treatment period 4 weeks",340 µg/g
same,Intact oligonucleotide,"[1]; high fat fed male C57Bl/6 mice, treatment period 6 weeks",586 µg/g
same,Intact oligonucleotide,"[1]; high fat fed male C57Bl/6 mice, treatment period 2 days",85 µg/g
same,Intact oligonucleotide,"[1]; high fat fed mice, 1 week after cessation of dosing",215 µg/g
same,Intact oligonucleotide,"[1]; high fat fed mice, 2 weeks after cessation of dosing",168 µg/g
same,Intact oligonucleotide,"[1]; high fat fed mice, 4 weeks after cessation of dosing",124 µg/g
same,Intact oligonucleotide,"[1]; high fat fed mice, 6 weeks after cessation of dosing",70 µg/g
same,Intact oligonucleotide,"[1]; high fat fed mice, 8 weeks after cessation of dosing",43 µg/g
same,Lipoproteins CHOL,[2]; [6],269.6 mg/dL
same,Lipoproteins HDL,[2]; [6],121.0 mg/dL
same,Lipoproteins LDL,[2]; [6],127.8 mg/dL
same,Lipoproteins TRIG,[2]; [6],140.8 mg/dL
same,Liver Enzymes ALT,[2]; [6],27.2 IU/L
same,Liver Enzymes AST,[2]; [6],82.0 IU/L
same,Lipoproteins CHOL,[2]; [7],175.8 mg/dL
same,Lipoproteins HDL,[2]; [7],99.5 mg/dL
same,Lipoproteins LDL,[2]; [7],68.9 mg/dL
same,Lipoproteins TRIG,[2]; [7],100.4 mg/dL
same,Liver Enzymes ALT,[2]; [7],32.2 IU/L
same,Liver Enzymes AST,[2]; [7],61.4 IU/L
same,Lipoproteins CHOL,[2]; [8],138.2 mg/dL
same,Lipoproteins HDL,[2]; [8],92.2 mg/dL
same,Lipoproteins LDL,[2]; [8],45.9 mg/dL
same,Lipoproteins TRIG,[2]; [8],98.0 mg/dL
same,Liver Enzymes ALT,[2]; [8],120.4 IU/L
same,Liver Enzymes AST,[2]; [8],134.6 IU/L
same,Lipoproteins CHOL,[2]; [9],314.2 mg/dL
same,Lipoproteins HDL,[2]; [9],150.0 mg/dL
same,Lipoproteins LDL,[2]; [9],134.7 mg/dL
same,Lipoproteins TRIG,[2]; [9],198.6 mg/dL
same,Liver Enzymes ALT,[2]; [9],29.8 IU/L
same,Liver Enzymes AST,[2]; [9],57.6 IU/L
same,Lipoproteins CHOL,[2]; [10],185.0 mg/dL
same,Lipoproteins HDL,[2]; [10],110.6 mg/dL
same,Lipoproteins LDL,[2]; [10],66.2 mg/dL
same,Lipoproteins TRIG,[2]; [10],104.2 mg/dL
same,Liver Enzymes ALT,[2]; [10],78.8 IU/L
same,Liver Enzymes AST,[2]; [10],112.6 IU/L
same,Lipoproteins CHOL,[2]; [11],165.6 mg/dL
same,Lipoproteins HDL,[2]; [11],107.8 mg/dL
same,Lipoproteins LDL,[2]; [11],51.2 mg/dL
same,Lipoproteins TRIG,[2]; [11],113.4 mg/dL
same,Liver Enzymes ALT,[2]; [11],156.8 IU/L
same,Liver Enzymes AST,[2]; [11],163.6 IU/L
same,% Inhibition apolipoprotein B mRNA,"apolipoprotein B mRNA [3]; high fat fed male C57Bl/6 mice, 50 mg/kg i.p. twice weekly, treatment period 1 week",57%
same,% Inhibition apolipoprotein B mRNA,"apolipoprotein B mRNA [3]; high fat fed male C57Bl/6 mice, 50 mg/kg i.p. twice weekly, treatment period 2 weeks",73%
same,% Inhibition apolipoprotein B mRNA,"apolipoprotein B mRNA [3]; high fat fed male C57Bl/6 mice, 50 mg/kg i.p. twice weekly, treatment period 4 weeks",82%
same,% Inhibition apolipoprotein B mRNA,"apolipoprotein B mRNA [3]; high fat fed male C57Bl/6 mice, 50 mg/kg i.p. twice weekly, treatment period 6 weeks",88%
same,% Inhibition apolipoprotein B mRNA,"apolipoprotein B mRNA [3]; high fat fed male C57Bl/6 mice, 50 mg/kg i.p. twice weekly, treatment period 2 days",50%
same,% Inhibition apolipoprotein B mRNA,"apolipoprotein B mRNA [3]; high fat fed mice, 50 mg/kg i.p. twice weekly, 1 week after cessation of dosing",82%
same,% Inhibition apolipoprotein B mRNA,"apolipoprotein B mRNA [3]; high fat fed mice, 50 mg/kg i.p. twice weekly, 2 weeks after cessation of dosing",78%
same,% Inhibition apolipoprotein B mRNA,"apolipoprotein B mRNA [3]; high fat fed mice, 50 mg/kg i.p. twice weekly, 4 weeks after cessation of dosing",49%
same,% Inhibition apolipoprotein B mRNA,"apolipoprotein B mRNA [3]; high fat fed mice, 50 mg/kg i.p. twice weekly, 6 weeks after cessation of dosing",37%
same,% Inhibition apolipoprotein B mRNA,"apolipoprotein B mRNA [3]; high fat fed mice, 50 mg/kg i.p. twice weekly, 8 weeks after cessation of dosing",19%
"GTCCCTGAAGATGTCAATGC (2'-MOE gapmer, further chemistry not given here) [ISIS 147764]",% Inhibition apolipoprotein B mRNA,apolipoprotein B mRNA [4]; 25 mg/kg i.p. twice weekly,48%
same,% Inhibition apolipoprotein B mRNA,apolipoprotein B mRNA [4]; 50 mg/kg i.p. twice weekly,77%
same,inhibition of apolipoprotein B mRNA expression,apolipoprotein B mRNA [4]; 25 or 50 mg/kg i.p. twice weekly,in a dose-dependent manner
same,LDL-cholesterol,"[5]; 10 or 25 mg/kg, first 4 weeks of treatment",lowered
same,"cholesterol, triglycerides","[2]; male and female LDLr(-/-) mice, 10, 25 or 50 mg/kg i.p. twice a week","able to lower cholesterol, triglycerides, and mRNA levels in a dose-dependent manner"
same,time of treatment within which inhibition of apolipoprotein B mRNA occurred,"apolipoprotein B mRNA [3]; high fat fed C57Bl/6 mice, 50 mg/kg i.p. twice weekly",≤ 2 days
same,"persistence of effects (mRNA inhibition, cholesterol lowering) after termination of treatment","apolipoprotein B mRNA [3]; high fat fed C57Bl/6 mice, after 6 weeks of 50 mg/kg twice weekly",up to 8 weeks
"ISIS 301012: SEQ ID NO: 247, antisense oligonucleotide targeted to human apolipoprotein B (antisense GCCTCAGTCTGCTTCGCACC; chemistry not given here)",HDL-cholesterol,[5]; [12],69 mg/dL
same,LDL-cholesterol,[5]; [12],20 mg/dL
same,Total cholesterol,[5]; [12],97 mg/dL
same,HDL-cholesterol,[5]; [13],78 mg/dL
same,LDL-cholesterol,[5]; [13],23 mg/dL
same,Total cholesterol,[5]; [13],111 mg/dL
same,HDL-cholesterol,[5]; [14],72 mg/dL
same,LDL-cholesterol,[5]; [14],37 mg/dL
same,Total cholesterol,[5]; [14],120 mg/dL
same,HDL-cholesterol,[5]; [15],79 mg/dL
same,LDL-cholesterol,[5]; [15],33 mg/dL
same,Total cholesterol,[5]; [15],122 mg/dL
same,HDL-cholesterol,[5]; [16],70 mg/dL
same,LDL-cholesterol,[5]; [16],35 mg/dL
same,Total cholesterol,[5]; [16],115 mg/dL
same,HDL-cholesterol,[5]; [17],73 mg/dL
same,LDL-cholesterol,[5]; [17],19 mg/dL
same,Total cholesterol,[5]; [17],101 mg/dL
same,HDL-cholesterol,[5]; [18],76 mg/dL
same,LDL-cholesterol,[5]; [18],19 mg/dL
same,Total cholesterol,[5]; [18],107 mg/dL
same,HDL-cholesterol,[5]; [19],80 mg/dL
same,LDL-cholesterol,[5]; [19],37 mg/dL
same,Total cholesterol,[5]; [19],124 mg/dL
same,HDL-cholesterol,[5]; [20],91 mg/dL
same,LDL-cholesterol,[5]; [20],44 mg/dL
same,Total cholesterol,[5]; [20],147 mg/dL
same,HDL-cholesterol,[5]; [21],64 mg/dL
same,LDL-cholesterol,[5]; [21],33 mg/dL
same,Total cholesterol,[5]; [21],107 mg/dL
